# Laboratory results taken from publication PMC3066593, “Liposomal Tumor Targeting in Drug Delivery Utilizing MMP-2- and MMP-9-Binding Ligands” (Journal of Drug Delivery, 2010).
# Positions of bridges follow the written chain, without caps; N, C: chain ends. Residues, ends and D or L forms follow the SMILES beside them.
# Legend:
# [1] = Hepatic accumulation of 125I-labelled peptides in normal mice; type: in vivo
# Experimental: Radiolabeling of peptides and all liposomal formulations with iodine-125 (^125I) was performed using the IODOGEN (Pierce, Rockford, IL). The CTT2-PEG3400-DSPE peptide was labeled with ^125I using iodogen as a catalyst. 5 MBq of Na125I (Amersham, Buckinghamshire, England) in 0.5 ml PBS was added to a tube containing 10 μg dried iodogen and 100 μg CTT2-PEG3400-DSPE peptide construct. The mixture was incubated for 20 min at room temperature. The ^125I-bound particle fractions were purified by elution from PD-10 columns. The activity of the peptide was determined in a gamma counter (Cobra II, Packard Instruments).
# Following single i.v. tracer doses of purified ^125I-CTT1-peptide (∼40 μg/mouse), ^125I-CTT2-peptide (∼40 μg/mouse), or CTT2-micelles (200 μg/mouse; 200 kBq), the percentage of the injected dose per gram of tissue (%ID/g) values, corrected for radioactive decay to the time of injection, were measured in tumor and major tissues/organs (heart, liver, kidney, lung, muscle, brain, spleen, and tumor) by sacrificing groups of normal mice or mice bearing serous ovarian hindleg xenografts (OV-90) at specified time points.
# A2780 xenografts = test: Therapeutic efficacy (survival) in subcutaneous A2780 xenografts; type: in vivo, NMRI nude mice; settings: 9 mg/kg i.v.
# Experimental: (§1) Therapeutic efficacy studies were conducted in subcutaneous A2780 xenografts using doxorubicin, administered as either CTT2-SL liposomes or Caelyx. Commercially available nonliposomal (“free”) drug (i.e., doxorubicin) and saline dilution buffer were used as treatment controls. A2780 ovarian cancer cells (5×10^6 in 100 μl PBS) were injected subcutaneously into the posterior flanks of NMRI nude mice (n = 40). Mice received i.v. bolus injections of CTT2-SL liposome, Caelyx, doxorubicin, and buffer. CTT2-SL liposomes were injected when tumor volumes reached 65 mm^3, while administration of Caelyx and doxorubicin to different xenograft mice was offset in time from CTT2-SL liposomes by 3 and 6 days, respectively. Doxorubicin, CTT2-SL liposomes, and Caelyx were injected at doses of 9 mg/kg each. Mouse body weights were monitored throughout the study period.
# [2] = Mouse body weight during efficacy study; type: in vivo, NMRI nude mice; settings: at day 9; 9 mg/kg doxorubicin equivalents at day 0, 3 and 6; mean of 9 mice; weights returned to initial levels one week later
# Experimental: as §1
smiles,measurement,setting,value
CC(C)C[C@@H]1NC(=O)[C@H]([C@@H](C)O)NC(=O)[C@H](Cc2ccccc2)NC(=O)CNC(=O)[C@H](Cc2c[nH]c3ccccc23)NC(=O)[C@H](Cc2c[nH]cn2)NC(=O)[C@H]([C@@H](C)O)NC(=O)[C@H]([C@@H](C)O)NC(=O)[C@@H](N)CSSC[C@@H](C(=O)O)NC1=O [CTT1-peptide] (H-CTTHWGFTLC-OH; disulfide 1-10),Liver accumulation of peptide per gram of tissue relative to muscle,"[1]; nontumor-bearing normal mice, n = 5, single i.v. tracer dose ~40 μg/mouse, 125I label, compared between CTT1- and CTT2-peptide (Figure 4)",greater liver accumulation
CC(C)C[C@@H]1NC(=O)[C@H]([C@@H](C)O)NC(=O)[C@H](Cc2ccccc2)NC(=O)CNC(=O)[C@H](Cc2c[nH]c3ccccc23)NC(=O)[C@H](Cc2c[nH]cn2)NC(=O)[C@H]([C@@H](C)O)NC(=O)[C@H]([C@@H](C)O)NC(=O)[C@@H](NC(=O)CNC(=O)[C@H](Cc2c[nH]cn2)NC(=O)[C@H](Cc2ccc(O)cc2)NC(=O)[C@H](CC(N)=O)NC(=O)[C@H](CCC(=O)O)NC(=O)[C@H](CCCNC(=N)N)NC(=O)CN)CSSC[C@@H](C(N)=O)NC1=O [CTT2-peptide] (H-GRENYHGCTTHWGFTLC-NH2; disulfide 8-17),Hepatic clearance,"[1]; normal mice, compared with CTT1-peptide",more rapid hepatic clearance
"COc1cccc2c1C(=O)c1c(O)c3c(c(O)c1C2=O)C[C@@](O)(C(=O)CO)C[C@@H]3O[C@H]1C[C@H](N)[C@H](O)[C@H](C)O1 [Doxorubicin, doxorubicin]",Day at which live mice with tumor size exceeding 1000 mm^3 were sacrificed,A2780 xenografts,24 days
same,Maximum body weight loss,[2],about 10%
